Assay [1] has as its target T1, Alpha-1A adrenergic receptor (Homo sapiens, UniProt P35348).
T1 sequence (P35348 whole entry): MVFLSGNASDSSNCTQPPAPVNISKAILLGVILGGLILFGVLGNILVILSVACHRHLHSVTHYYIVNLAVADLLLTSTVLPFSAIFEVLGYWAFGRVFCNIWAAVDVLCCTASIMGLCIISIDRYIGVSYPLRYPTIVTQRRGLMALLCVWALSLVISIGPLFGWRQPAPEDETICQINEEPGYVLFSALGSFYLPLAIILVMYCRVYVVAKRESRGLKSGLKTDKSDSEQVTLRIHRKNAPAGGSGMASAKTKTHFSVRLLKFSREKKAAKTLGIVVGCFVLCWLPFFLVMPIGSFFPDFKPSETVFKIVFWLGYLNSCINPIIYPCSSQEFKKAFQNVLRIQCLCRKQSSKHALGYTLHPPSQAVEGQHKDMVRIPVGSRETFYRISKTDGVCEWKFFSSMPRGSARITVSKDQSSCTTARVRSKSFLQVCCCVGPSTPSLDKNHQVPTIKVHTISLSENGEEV
The class given is functional, cell-based.

Assay [2] has as its target T1, Alpha-1A adrenergic receptor. The format is functional, cell-based. This is another data set of the same source.
Assay [3] deals with T2, Alpha-2A adrenergic receptor (Homo sapiens, UniProt P08913).
T2 sequence (P08913 whole entry): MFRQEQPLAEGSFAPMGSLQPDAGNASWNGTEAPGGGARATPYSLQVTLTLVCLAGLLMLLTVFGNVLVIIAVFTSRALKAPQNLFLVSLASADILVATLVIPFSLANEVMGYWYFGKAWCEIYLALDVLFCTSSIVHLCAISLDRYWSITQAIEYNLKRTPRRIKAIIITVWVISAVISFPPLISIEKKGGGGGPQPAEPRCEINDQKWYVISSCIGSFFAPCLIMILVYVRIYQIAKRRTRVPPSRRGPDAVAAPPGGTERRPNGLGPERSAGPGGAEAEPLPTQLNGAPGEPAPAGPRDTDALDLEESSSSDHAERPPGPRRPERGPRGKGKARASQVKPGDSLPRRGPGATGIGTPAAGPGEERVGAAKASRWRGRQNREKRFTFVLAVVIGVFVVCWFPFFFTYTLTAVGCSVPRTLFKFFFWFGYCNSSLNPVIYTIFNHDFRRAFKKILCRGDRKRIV

In assay [4] the target is Glutamate receptor ionotropic, NMDA 1 (Rattus norvegicus, UniProt P35439).
For the next assay, the target named is Histamine H2 receptor (Homo sapiens, UniProt P25021). The format is functional, cell-based.
For assay [5], the target named is T3, Amine oxidase [flavin-containing] A (Homo sapiens, UniProt P21397).
T3 sequence (P21397 whole entry): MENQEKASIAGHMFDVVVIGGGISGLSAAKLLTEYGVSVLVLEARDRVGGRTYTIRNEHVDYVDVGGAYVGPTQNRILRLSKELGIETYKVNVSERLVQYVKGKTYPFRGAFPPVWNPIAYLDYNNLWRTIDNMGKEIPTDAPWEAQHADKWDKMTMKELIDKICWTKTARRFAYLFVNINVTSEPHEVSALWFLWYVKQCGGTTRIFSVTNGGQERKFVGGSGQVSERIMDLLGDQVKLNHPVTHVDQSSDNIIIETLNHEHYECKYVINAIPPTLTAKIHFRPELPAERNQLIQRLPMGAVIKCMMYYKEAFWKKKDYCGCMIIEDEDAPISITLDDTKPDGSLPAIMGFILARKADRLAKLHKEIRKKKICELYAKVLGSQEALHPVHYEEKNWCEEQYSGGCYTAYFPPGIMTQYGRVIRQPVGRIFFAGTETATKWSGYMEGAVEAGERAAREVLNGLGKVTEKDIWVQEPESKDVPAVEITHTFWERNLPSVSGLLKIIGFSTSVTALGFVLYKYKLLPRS
The format is functional.

The target in the next assay is Melanocortin receptor 4 (Homo sapiens, UniProt P32245).
Assay [6] addresses T4, Neuropeptide Y receptor type 1 (Homo sapiens, UniProt P25929).
T4 sequence (P25929 whole entry): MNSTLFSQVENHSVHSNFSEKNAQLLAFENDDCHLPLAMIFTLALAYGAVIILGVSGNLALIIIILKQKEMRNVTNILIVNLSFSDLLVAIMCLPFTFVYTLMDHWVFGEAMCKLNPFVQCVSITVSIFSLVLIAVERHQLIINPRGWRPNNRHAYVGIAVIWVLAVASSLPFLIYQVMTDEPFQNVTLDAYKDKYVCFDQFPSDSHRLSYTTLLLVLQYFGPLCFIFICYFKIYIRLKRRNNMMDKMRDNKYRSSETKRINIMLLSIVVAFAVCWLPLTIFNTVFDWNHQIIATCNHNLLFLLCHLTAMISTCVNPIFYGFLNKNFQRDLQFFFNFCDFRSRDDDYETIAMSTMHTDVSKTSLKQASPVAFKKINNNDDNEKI

The next assay deals with T5, Thromboxane A2 receptor (Homo sapiens, UniProt P21731).
T5 sequence (P21731 whole entry): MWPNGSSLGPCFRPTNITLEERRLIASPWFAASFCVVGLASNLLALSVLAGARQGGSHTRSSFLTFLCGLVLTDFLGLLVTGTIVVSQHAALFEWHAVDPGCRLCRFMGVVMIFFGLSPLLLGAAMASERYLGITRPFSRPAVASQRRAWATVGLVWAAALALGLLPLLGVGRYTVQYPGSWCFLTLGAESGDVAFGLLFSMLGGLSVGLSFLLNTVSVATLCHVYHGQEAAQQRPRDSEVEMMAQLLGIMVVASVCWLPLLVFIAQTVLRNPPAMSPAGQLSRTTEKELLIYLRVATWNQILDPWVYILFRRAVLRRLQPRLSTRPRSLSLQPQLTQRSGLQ
The class given is functional, cell-based.

Bounds are passed on as bounds.
Note: assay procedure not described here.

Histamine H2 receptor, sequence (P25021 whole entry): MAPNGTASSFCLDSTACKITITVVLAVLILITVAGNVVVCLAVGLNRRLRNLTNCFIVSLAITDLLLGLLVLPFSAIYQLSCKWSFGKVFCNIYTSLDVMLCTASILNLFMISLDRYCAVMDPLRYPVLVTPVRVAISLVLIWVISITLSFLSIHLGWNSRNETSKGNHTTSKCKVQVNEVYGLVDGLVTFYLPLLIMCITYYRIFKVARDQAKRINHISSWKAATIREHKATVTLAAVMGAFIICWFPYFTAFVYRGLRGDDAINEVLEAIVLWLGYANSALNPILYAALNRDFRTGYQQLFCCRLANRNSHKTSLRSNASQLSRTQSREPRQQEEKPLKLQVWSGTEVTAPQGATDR
Melanocortin receptor 4, sequence (P32245 whole entry): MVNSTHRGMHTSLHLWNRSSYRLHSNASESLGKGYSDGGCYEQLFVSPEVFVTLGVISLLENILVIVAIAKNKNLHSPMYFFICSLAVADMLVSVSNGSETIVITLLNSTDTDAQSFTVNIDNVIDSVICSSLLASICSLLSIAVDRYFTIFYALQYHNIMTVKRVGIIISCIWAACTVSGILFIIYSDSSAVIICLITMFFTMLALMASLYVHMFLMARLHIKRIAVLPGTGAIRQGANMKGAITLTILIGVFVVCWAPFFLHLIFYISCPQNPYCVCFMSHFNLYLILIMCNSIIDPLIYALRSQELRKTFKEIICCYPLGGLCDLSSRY

As for `CC[C@H]1OC(=O)[C@H](C)[C@@H](O[C@H]2C[C@@](C)(OC)[C@@H](O)[C@H](C)O2)[C@H](C)[C@@H](O[C@@H]2O[C@H](C)C[C@H](N(C)C)[C@H]2O)[C@](C)(O)C[C@@H](C)CN(C)[C@H](C)[C@@H](O)[C@]1(C)O` [AZITHROMYCIN], the AC50 – broadly, the midpoint of the concentration-response curve, whichever way the signal moves – in assay [1] was more than 30 µM; in [2], more than 30 µM; in assay [3], more than 30 µM; in assay [4], more than 10 µM; at Histamine H2 receptor it was more than 10 µM; in assay [5], more than 30 µM. Also, the half-maximal activity concentration (AC50) (on Melanocortin receptor 4; in assay [6]; on Thromboxane A2 receptor) was more than 30 µM throughout.

With `NCC(CC(=O)O)c1ccc(Cl)cc1` (stereo not drawn) [BACLOFEN], the AC50 in assay [1] was more than 30 µM; in [2], more than 30 µM; in assay [3], more than 30 µM; in [4], more than 10 µM; at Histamine H2 receptor it was more than 10 µM; in assay [5], more than 30 µM. The AC50 (at Melanocortin receptor 4; in assay [6]; on Thromboxane A2 receptor) was more than 30 µM in each case.

For the molecule `CC(C)C[C@H]1C(=O)N2CCC[C@H]2[C@]2(O)O[C@](NC(=O)[C@@H]3C=C4c5cccc6[nH]c(Br)c(c56)C[C@H]4N(C)C3)(C(C)C)C(=O)N12` [BROMOCRIPTINE], the AC50 in [1] is 0.844 µM; in assay [2], 1.07 µM; in assay [4], more than 10 µM; at Histamine H2 receptor, 2.13 µM; in assay [5], more than 30 µM; on Melanocortin receptor 4, more than 30 µM. In addition, the values for the AC50 (in [6]; at Thromboxane A2 receptor) were more than 30 µM and more than 3 µM, respectively.

Regarding `Cc1ccc(-c2cc(C(F)(F)F)nn2-c2ccc(S(N)(=O)=O)cc2)cc1` [CELECOXIB], the half-maximal activity concentration (AC50) in assay [1] is more than 30 µM; in [4], more than 10 µM; on Histamine H2 receptor it was more than 10 µM; on Melanocortin receptor 4 it was more than 10 µM; in [6], more than 10 µM.

In the case of `CC1=C(C(=O)O)N2C(=O)[C@@H](NC(=O)[C@H](N)c3ccccc3)[C@H]2SC1` [CEPHALEXIN ANHYDROUS], the AC50 in [1] is more than 30 µM; in assay [4], more than 10 µM; on Histamine H2 receptor, more than 30 µM; on Melanocortin receptor 4 it was more than 30 µM; in [6] it was more than 30 µM.

As to `CN(C)CCC(c1ccc(Cl)cc1)c1ccccn1` (stereo not drawn) [CHLORPHENIRAMINE], the concentration at half-maximal activity (AC50) in [1] was more than 30 µM; in assay [4] it was more than 10 µM; at Histamine H2 receptor, more than 10 µM; at Melanocortin receptor 4, more than 30 µM; in assay [6] it was more than 30 µM.

On to `O=C1Nc2ccc(Cl)cc2[C@@](C#CC2CC2)(C(F)(F)F)O1` [EFAVIRENZ], for which the AC50 is more than 30 µM in assay [1]; more than 10 µM in assay [4]; more than 10 µM on Histamine H2 receptor; more than 30 µM at Melanocortin receptor 4; more than 30 µM in assay [6].

For `C[N+]1(C)CCC(OC(=O)C(O)(c2ccccc2)C2CCCC2)C1` (stereo not drawn) [GLYCOPYRRONIUM BROMIDE], the AC50 at Melanocortin receptor 4 and at Thromboxane A2 receptor was more than 30 µM throughout.

As to `C[C@]12CCC(=O)C=C1CC[C@@H]1[C@@H]2[C@@H](O)C[C@@]2(C)[C@H]1CC[C@]2(O)C(=O)CO` [HYDROCORTISONE], the AC50 in assay [1] is more than 30 µM; in assay [4] it was more than 10 µM; on Histamine H2 receptor, more than 10 µM; on Melanocortin receptor 4, more than 30 µM; in assay [6], more than 30 µM.

As for `CCC(C)n1ncn(-c2ccc(N3CCN(c4ccc(OCC5COC(Cn6cncn6)(c6ccc(Cl)cc6Cl)O5)cc4)CC3)cc2)c1=O` (stereo not drawn) [ITRACONAZOLE], the half-maximal activity concentration (AC50) was more than 30 µM in assay [1]; more than 30 µM in [4]; more than 10 µM at Histamine H2 receptor; more than 30 µM on Melanocortin receptor 4; more than 30 µM in assay [6].

`Cc1cccc(Nc2ccccc2C(=O)O)c1C` [MEFENAMIC ACID]: the AC50 in [2] is more than 30 µM; in assay [3], more than 30 µM; in assay [4], more than 10 µM; on Histamine H2 receptor it was more than 10 µM; in [5], more than 30 µM; on Melanocortin receptor 4, more than 10 µM. Further, the figures for the AC50 (in assay [6]; at Thromboxane A2 receptor) were more than 10 µM and more than 30 µM, respectively.

With `C[C@@H](O)[C@H]1C(=O)N2C(C(=O)O)=C(S[C@@H]3CN[C@H](C(=O)N(C)C)C3)[C@H](C)[C@H]12` [MEROPENEM], the AC50 in [1] is more than 300 µM; in assay [4], more than 10 µM; at Histamine H2 receptor, more than 10 µM; at Melanocortin receptor 4, more than 10 µM; in assay [6], more than 10 µM.

In the case of `CCCN1C[C@H](CSC)C[C@@H]2c3cccc4[nH]cc(c34)C[C@H]21` [PERGOLIDE], the AC50 in assay [1] is 0.33 µM; in assay [4], more than 10 µM; at Histamine H2 receptor, 0.95 µM; at Melanocortin receptor 4 it was more than 30 µM; in [6] it was more than 30 µM.

Turning to `CS(=O)(=O)c1ccc(C2=C(c3ccccc3)C(=O)OC2)cc1` [ROFECOXIB], the AC50 is more than 30 µM in assay [1]; more than 30 µM in assay [2]; more than 30 µM in assay [3]; more than 10 µM in assay [4]; more than 30 µM at Histamine H2 receptor; more than 30 µM in [5]. The values for the AC50 (on Melanocortin receptor 4; in assay [6]; at Thromboxane A2 receptor) were 24.1 µM, more than 30 µM and more than 30 µM, respectively.

For `CO[C@H]1C[C@@H]2CC[C@@H](C)[C@@](O)(O2)C(=O)C(=O)N2CCCC[C@H]2C(=O)O[C@H]([C@H](C)C[C@@H]2CC[C@@H](O)[C@H](OC)C2)CC(=O)[C@H](C)/C=C(\C)[C@@H](O)[C@@H](OC)C(=O)[C@H](C)C[C@H](C)/C=C/C=C/C=C/1C` [SIROLIMUS], the AC50 in [1] was more than 30 µM; in [2], more than 30 µM; in [3] it was more than 30 µM; in [4] it was more than 10 µM; at Histamine H2 receptor it was more than 10 µM; in [5], more than 30 µM. For the same molecule, the concentration at half-maximal activity (AC50) (on Melanocortin receptor 4; in [6]; at Thromboxane A2 receptor) was more than 30 µM each time.

Regarding `Cc1cn([C@H]2C=C[C@@H](CO)O2)c(=O)[nH]c1=O` [STAVUDINE], the AC50 in assay [1] was more than 30 µM; in assay [2] it was more than 30 µM; in [3] it was more than 30 µM; in assay [4] it was more than 10 µM; at Histamine H2 receptor it was more than 10 µM; in [5] it was more than 30 µM. Moreover, the AC50 (on Melanocortin receptor 4; in assay [6]; at Thromboxane A2 receptor) was more than 30 µM in each case.

`Clc1ccc2nsnc2c1NC1=NCCN1` [TIZANIDINE]: the half-maximal activity concentration (AC50) in [1] is 0.0098 µM; in [4] it was more than 10 µM; at Histamine H2 receptor, 0.93 µM; on Melanocortin receptor 4, more than 30 µM; in assay [6], more than 30 µM.

The values are drawn from ChEMBL document CHEMBL5291721, “A preclinical secondary pharmacology resource illuminates target-adverse drug reaction associations of marketed drugs” (Nat Commun, 2023).
